Structures can show the parent of a compound that is named as a salt.

One assay deals with anesthetized rats. As to the kind of experiment: Effect on pelvic nerve stimulation-induced elevation of intravesical pressure in anesthetized rats. The note with it: Rattus norvegicus; 3 mg/kg intravenous; maximum effect within one hour; AUC, pre-treatment = 100%; SD female rats; read-out: Increase rate of intravesical pressure (% of pre). It counts as in vivo. The method, then:
Test Example 3: Effect on Pelvic Nerve Stimulation-Induced Elevation of Intravesical Pressure in Anesthetized Rats
The effect of the Example compounds of the present invention in the pelvic nerve electrical stimulation-induced elevation of intravesical pressure using rats as an action of nerve stimulation-dependent bladder contraction in vivo was measured by the following method. That is, SD female rats (Japan SLC, Inc.) were used and its lower abdomen was dissected at the midline under pentobarbital anesthesia (50 mg/kg ip). After ligating and cutting the ureter on both sides, a cannula (PE-50) for measuring the intravesical pressure was inserted into the bladder from the external urethral opening and fixed by a clip. After injecting about 200 μL of saline through the cannula that had been inserted into the bladder, the other side was connected to a pressure transducer to measure the intravesical pressure. Under a stereoscopic microscope observation, the pelvic nerve in the vicinity of the bladder was peeled and an electrode for nerve stimulation (unique Medical) was placed. The abdominal cavity was filled with mineral oil (MP BIOMEDICALS). After placing in a post-operative stabilization period, the pelvic nerve was subjected to electrical stimulation (stimulation voltage: 10 V, stimulation frequency: 8 Hz, pulse width: 0.3 msec, and stimulation time: 10 seconds) to elicit the elevation of intravesical pressure, using an electrical stimulator (Nihon Kohden). By repeating the electrical stimulation at an interval of 2 minutes while adjusting the voltage, the voltage was adjusted to elicit about 50% to 70% elevation of intravesical pressure elicited at 10 V. Thereafter, by repeating the electrical stimulation at an interval of 10 minutes, the increase in the intravesical pressure by electrical stimulation was stabilized three times or more, and the test substance (an administration amount of 3 mg/kg) was then administered from the catheter detained in the vein at a volume of 1 mL/kg, thus measuring an effect of the elevation of the intravesical pressure of the test substance for 1 hour. The test substance was dissolved in water supplemented with 10% DMSO and 10% Cremophor.
The response was applied to a personal computer through a PowerLab (registered trademark) and analyzed by LabChart (registered trademark). The AUC of each elevation of the intravesical pressure was calculated, the intravesical pressure elevation rate (% of pre) after the treatment with the test substance was calculated by taking an average value of the values measured three times before the treatment with the test substance as 100%, and the maximum effect during a period within one hour after administration of the compound was considered as the effect of the test substance.

A further assay concerns rat isolated bladder. As to the kind of experiment: Effect on electrical field stimulation-induced contraction in rat isolated bladder. The settings on record: AUC of contraction, value before treatment = 100%, SD female rat bladder, read-out: Enhancement rate of extracted bladder contractions (% of pre). The protocol:
Test Example 2: Effect on Electrical Field Stimulation-Induced Contraction in Rat Isolated Bladder
As an effect on the nerve stimulation-dependent bladder contraction in in vitro, the effect of the Example compounds of the present invention in the electrical field stimulation-induced contraction of the rat isolated bladder was measured by the following method. That is, a bladder specimen having a width of about 2 mm and a length of about 10 mm in the longitudinal direction from the bladder isolated from a Sprague-Dawley (SD) female rat (Japan SLC, Inc.) was prepared. The prepared bladder specimen was suspended in an organ bath filled with 10 mL of a Krebs-Henseleite solution. The Krebs-Henseleite solution was aerated at 95% 02 and 5% CO2, and kept at 37° C. After carrying out stabilization at an initial tension of 1 g, the contraction was caused twice with 60 mM KCl. After stabilization of the specimen with a Krebs-Henseleite solution, the contraction was caused by carrying out electrical field stimulation at 20 V with an electrical stimulation device (Nihon Kohden) (a stimulation frequency of 8 Hz, a pulse width of 0.3 msec, and a stimulation time of 10 seconds). By repeating the transmural electrical stimulation at an interval of 2 minutes, a voltage was adjusted to obtain a contraction height of approximately 50% of the contractile response at 20 V. After the contraction by electrical field stimulation had been stabilized, 10 μL of the test substances dissolved in 100% DMSO in advance (final concentrations of 3 μM, 10 μM, and 30 μM) was added thereto. The test substances were cumulatively administered at the following concentrations after the low-concentration contractile response had been stabilized. The response was taken into a personal computer through a PowerLab (registered trademark) (AD Instruments, Inc.), and analyzed by LabChart (registered trademark) (AD Instruments, Inc.). When the area under the response (area under curve, AUC) in each contraction response was calculated and the value before treatment with the test substance was taken as 100%, the enhancement rate (% of pre) of the isolated bladder contractions after treatment with the test substance was calculated.

For `C[C@@H]1CCCN1Cc1sc(Nc2ncnc(N3CCC(OCC(=O)O)CC3)c2F)nc1-c1cc(F)cc(C(F)(F)F)c1` [Example 12, [(1-{5-fluoro-6-[(4-[3-fluoro-5-(trifluoromethyl)phenyl]-5-{[(2R)-2-methylpyrrolidin-1-yl]methyl}-1,3-thiazol-2-yl)amino]pyrimidin-4-yl}piperidin-4-yl)oxy]acetic acid dihydrochloride], the response vs control in vivo at 3 mg/kg with anesthetized rats worked out at 152%. In the assay with rat isolated bladder, the activity at 10 µM amounted to 166%.
In the case of `CC[C@@H]1CCCN1Cc1sc(Nc2ncnc(N3CCC(OCC(=O)O)CC3)c2F)nc1-c1cc(Cl)cc(C(F)(F)F)c1` [Example 13, [(1-{6-[(4-[3-chloro-5-(trifluoromethyl)phenyl]-5-{[(2R)-2-ethylpyrrolidin-1-yl]methyl}-1,3-thiazol-2-yl)amino]-5-fluoropyrimidin-4-yl}piperidin-4-yl)oxy]acetic acid dihydrochloride], the response vs control in vivo at 3 mg/kg in the assay with anesthetized rats worked out at 186%. The activity at 10 µM with rat isolated bladder came to 127%.
On the same counts, the results for `C[C@@H]1CCCN1Cc1sc(Nc2cc(N3CCN(CCC(=O)O)CC3)ncn2)nc1-c1cc(F)cc(C(F)(F)F)c1` [Example 14] are 121% and 169%.
`C[C@@H]1CCCN1Cc1sc(Nc2ncnc(N3CCN(CCC(=O)O)CC3)c2F)nc1-c1cc(F)cc(C(F)(F)F)c1` [Example 17]: the response vs control in vivo at 3 mg/kg with anesthetized rats amounted to 144%. Further, in the assay with rat isolated bladder, the activity at 10 µM came to 199%.
For the molecule `Cc1nc(Nc2nc(-c3cc(F)cc(C(F)(F)F)c3)c(CN3CCC[C@H]3C)s2)c(F)c(N2CCN(CCC(=O)O)CC2)n1` [Example 18], the response vs control in vivo at 3 mg/kg in the assay on anesthetized rats is 153%. Moreover, the activity at 10 µM in the assay on rat isolated bladder stood at 199%.
On the same counts, the results for `C[C@@H]1CCCN1Cc1sc(Nc2cc(N3CCN(CCC(=O)O)CC3)ccn2)nc1-c1cc(F)cc(C(F)(F)F)c1` [Example 19] are 125% and 161%.
The matching figures for `COc1c(Nc2nc(-c3cc(F)cc(C(F)(F)F)c3)c(CN3CCC[C@H]3C)s2)ncnc1N1CCN(CCC(=O)O)CC1` [Example 91]: 144% and 124%.

(Values after patent publication US9844549B2, “2-aminothiazole derivative or salt thereof” (ASTELLAS PHARMA INC., priority 2014, dated 2017).)
